Source: US12077503B2, “Substituted cyclic amides and their use as herbicides” (FMC CORPORATION, priority 2015, dated 2024)

What was measured:
Assay in all cases: Test E preemergence
Assay type in all cases: in vivo
Conditions in all cases: scale 0 to 100
[1] = test system: foxtail, giant (giant foxtail, Setaria faberii)
Summary of the method: (§1)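 Seeds planted in silt loam were treated preemergence, and plants in Redi-Earth peat medium at 2 to 18 cm (1- to 4-leaf) were treated postemergence, with test chemicals in non-phytotoxic solvent with surfactant. Plants kept in greenhouse 14 to 21 d, then visually rated against controls on a 0–100 scale (0 no effect, 100 complete control).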

corn (Zea mays) = test system: corn (Zea mays)
Summary of the method: as §1

[2] = test system: field bindweed (Convolvulus arvensis)
Summary of the method: as §1

[3] = test system: foxtail, green (green foxtail, Setaria viridis)
Summary of the method: as §1

[4] = test system: waterhemp (common waterhemp, Amaranthus rudis)
Summary of the method: as §1

[5] = test system: ryegrass, Italian (Italian ryegrass, Lolium multiflorum)
Summary of the method: as §1

[6] = test system: nightshade (eastern black nightshade, Solanum ptycanthum)
Summary of the method: as §1

[7] = test system: pigweed, palmer (palmer pigweed, Amaranthus palmeri)
Summary of the method: as §1

[8] = test system: crabgrass, large (large crabgrass, Digitaria sangumnalis)
Summary of the method: as §1

[9] = test system: johnsongrass (Sorghum halepense)
Summary of the method: as §1

[10] = test system: beggarticks (hairy beggarticks, Bidens pilosa)
Summary of the method: as §1

Kochia (Kochia scoparia) = test system: Kochia (Kochia scoparia)
Summary of the method: as §1

[11] = test system: Panicum, fall (fall Panicum, Panicum dichotomiflorum)
Summary of the method: as §1

[12] = test system: goosegrass (Eleusine indica)
Summary of the method: as §1

[13] = test system: arrowleaf Sida (Sida rhombifolia)
Summary of the method: as §1

[14] = test system: lambsquarters (Chenopodium album)
Summary of the method: as §1

[15] = test system: ragweed (common ragweed, Ambrosia elatior)
Summary of the method: as §1

[16] = test system: crabgrass, Brazil (Brazilian crabgrass, Digitaria horizontalis)
Summary of the method: as §1

CN1C[C@H](c2ccc(F)c(F)c2)[C@@H](C(=O)Nc2ccccc2F)C1=O [Compound 596, (3S,4S)-4-(3,4-difluorophenyl)-N-(2-fluorophenyl)-1-methyl-2-oxo-3-pyrrolidinecarboxamide]
65: Plant response rating: Goosegrass ([12]; 250 g ai/ha)
15: Plant response rating: Field Bindweed ([2]; 250 g ai/ha)
95: Plant response rating: Foxtail, Giant ([1]; 31 g ai/ha) | Plant response rating: Foxtail, Giant ([1]; 62 g ai/ha) | Plant response rating: Foxtail, Green ([3]; 31 g ai/ha) | Plant response rating: Foxtail, Green ([3]; 62 g ai/ha) | Plant response rating: Foxtail, Green ([3]; 125 g ai/ha) | Plant response rating: Foxtail, Green ([3]; 250 g ai/ha) | Plant response rating: Crabgrass, Large ([8]; 31 g ai/ha) | Plant response rating: Crabgrass, Large ([8]; 62 g ai/ha) | Plant response rating: Crabgrass, Brazil ([16]; 62 g ai/ha)
50: Plant response rating: Waterhemp ([4]; 250 g ai/ha) | Plant response rating: Ryegrass, Italian ([5]; 250 g ai/ha) | Plant response rating: Arrowleaf Sida ([13]; 250 g ai/ha) | Plant response rating: Ragweed ([15]; 250 g ai/ha)
98: Plant response rating: Foxtail, Giant ([1]; 125 g ai/ha) | Plant response rating: Foxtail, Giant ([1]; 250 g ai/ha) | Plant response rating: Crabgrass, Large ([8]; 125 g ai/ha) | Plant response rating: Crabgrass, Large ([8]; 250 g ai/ha)
90: Plant response rating: Kochia (Kochia (Kochia scoparia); 250 g ai/ha) | Plant response rating: Panicum, Fall ([11]; 250 g ai/ha) | Plant response rating: Lambsquarters ([14]; 250 g ai/ha)
100: Plant response rating: Crabgrass, Brazil ([16]; 31 g ai/ha) | Plant response rating: Crabgrass, Brazil ([16]; 125 g ai/ha) | Plant response rating: Crabgrass, Brazil ([16]; 250 g ai/ha)
5: Plant response rating: Goosegrass ([12]; 31 g ai/ha) | Plant response rating: Goosegrass ([12]; 62 g ai/ha)
80: Plant response rating: Kochia (Kochia (Kochia scoparia); 125 g ai/ha) | Plant response rating: Lambsquarters ([14]; 125 g ai/ha)
25: Plant response rating: Kochia (Kochia (Kochia scoparia); 62 g ai/ha) | Plant response rating: Goosegrass ([12]; 125 g ai/ha) | Plant response rating: Lambsquarters ([14]; 31 g ai/ha) | Plant response rating: Lambsquarters ([14]; 62 g ai/ha) | Plant response rating: Ragweed ([15]; 125 g ai/ha)
0: Plant response rating: Corn (corn (Zea mays); 31 g ai/ha) | Plant response rating: Corn (corn (Zea mays); 62 g ai/ha) | Plant response rating: Corn (corn (Zea mays); 125 g ai/ha) | Plant response rating: Corn (corn (Zea mays); 250 g ai/ha) | Plant response rating: Field Bindweed ([2]; 31 g ai/ha) | Plant response rating: Field Bindweed ([2]; 62 g ai/ha) | Plant response rating: Field Bindweed ([2]; 125 g ai/ha) | Plant response rating: Waterhemp ([4]; 31 g ai/ha) | Plant response rating: Waterhemp ([4]; 62 g ai/ha) | Plant response rating: Waterhemp ([4]; 125 g ai/ha) | Plant response rating: Ryegrass, Italian ([5]; 31 g ai/ha) | Plant response rating: Ryegrass, Italian ([5]; 62 g ai/ha) | Plant response rating: Nightshade ([6]; 31 g ai/ha) | Plant response rating: Nightshade ([6]; 62 g ai/ha) | Plant response rating: Nightshade ([6]; 125 g ai/ha) | Plant response rating: Pigweed, Palmer ([7]; 31 g ai/ha) | Plant response rating: Pigweed, Palmer ([7]; 62 g ai/ha) | Plant response rating: Pigweed, Palmer ([7]; 125 g ai/ha) | Plant response rating: Johnsongrass ([9]; 31 g ai/ha) | Plant response rating: Johnsongrass ([9]; 62 g ai/ha) | Plant response rating: Johnsongrass ([9]; 125 g ai/ha) | Plant response rating: Beggarticks ([10]; 31 g ai/ha) | Plant response rating: Beggarticks ([10]; 62 g ai/ha) | Plant response rating: Beggarticks ([10]; 125 g ai/ha) | Plant response rating: Beggarticks ([10]; 250 g ai/ha) | Plant response rating: Kochia (Kochia (Kochia scoparia); 31 g ai/ha) | Plant response rating: Panicum, Fall ([11]; 31 g ai/ha) | Plant response rating: Panicum, Fall ([11]; 62 g ai/ha) | Plant response rating: Panicum, Fall ([11]; 125 g ai/ha) | Plant response rating: Ragweed ([15]; 31 g ai/ha) | Plant response rating: Ragweed ([15]; 62 g ai/ha)
35: Plant response rating: Ryegrass, Italian ([5]; 125 g ai/ha) | Plant response rating: Johnsongrass ([9]; 250 g ai/ha) | Plant response rating: Arrowleaf Sida ([13]; 31 g ai/ha)
30: Plant response rating: Arrowleaf Sida ([13]; 62 g ai/ha) | Plant response rating: Arrowleaf Sida ([13]; 125 g ai/ha)
40: Plant response rating: Pigweed, Palmer ([7]; 250 g ai/ha)
60: Plant response rating: Nightshade ([6]; 250 g ai/ha)

CN1C[C@H](c2ccc(C(F)(F)F)cc2)[C@@H](C(=O)Nc2cccc(F)c2F)C1=O [Compound 623, (3S,4S)—N-(2,3-difluorophenyl)-1-methyl-2-oxo-4-[4-(trifluoromethyl)phenyl]-3-pyrrolidinecarboxamide]
0: Plant response rating: Corn (corn (Zea mays); 31 g ai/ha) | Plant response rating: Field Bindweed ([2]; 31 g ai/ha) | Plant response rating: Beggarticks ([10]; 31 g ai/ha) | Plant response rating: Beggarticks ([10]; 62 g ai/ha) | Plant response rating: Beggarticks ([10]; 125 g ai/ha)
35: Plant response rating: Nightshade ([6]; 62 g ai/ha) | Plant response rating: Beggarticks ([10]; 250 g ai/ha)
20: Plant response rating: Arrowleaf Sida ([13]; 31 g ai/ha)
100: Plant response rating: Lambsquarters ([14]; 125 g ai/ha)
70: Plant response rating: Field Bindweed ([2]; 125 g ai/ha) | Plant response rating: Nightshade ([6]; 125 g ai/ha) | Plant response rating: Nightshade ([6]; 250 g ai/ha)
65: Plant response rating: Corn (corn (Zea mays); 250 g ai/ha)
98: Plant response rating: Foxtail, Green ([3]; 125 g ai/ha) | Plant response rating: Foxtail, Green ([3]; 250 g ai/ha) | Plant response rating: Crabgrass, Large ([8]; 31 g ai/ha) | Plant response rating: Crabgrass, Large ([8]; 62 g ai/ha) | Plant response rating: Crabgrass, Large ([8]; 125 g ai/ha) | Plant response rating: Crabgrass, Large ([8]; 250 g ai/ha) | Plant response rating: Goosegrass ([12]; 62 g ai/ha) | Plant response rating: Goosegrass ([12]; 125 g ai/ha) | Plant response rating: Goosegrass ([12]; 250 g ai/ha) | Plant response rating: Crabgrass, Brazil ([16]; 31 g ai/ha) | Plant response rating: Crabgrass, Brazil ([16]; 62 g ai/ha) | Plant response rating: Crabgrass, Brazil ([16]; 125 g ai/ha) | Plant response rating: Crabgrass, Brazil ([16]; 250 g ai/ha)
25: Plant response rating: Ryegrass, Italian ([5]; 31 g ai/ha)
80: Plant response rating: Arrowleaf Sida ([13]; 62 g ai/ha)
40: Plant response rating: Johnsongrass ([9]; 31 g ai/ha)
50: Plant response rating: Ryegrass, Italian ([5]; 62 g ai/ha)
90: Plant response rating: Waterhemp ([4]; 31 g ai/ha) | Plant response rating: Waterhemp ([4]; 62 g ai/ha) | Plant response rating: Ryegrass, Italian ([5]; 250 g ai/ha) | Plant response rating: Pigweed, Palmer ([7]; 62 g ai/ha) | Plant response rating: Kochia (Kochia (Kochia scoparia); 31 g ai/ha) | Plant response rating: Kochia (Kochia (Kochia scoparia); 62 g ai/ha) | Plant response rating: Panicum, Fall ([11]; 31 g ai/ha) | Plant response rating: Panicum, Fall ([11]; 62 g ai/ha) | Plant response rating: Panicum, Fall ([11]; 125 g ai/ha) | Plant response rating: Panicum, Fall ([11]; 250 g ai/ha) | Plant response rating: Arrowleaf Sida ([13]; 250 g ai/ha) | Plant response rating: Lambsquarters ([14]; 31 g ai/ha) | Plant response rating: Lambsquarters ([14]; 62 g ai/ha) | Plant response rating: Ragweed ([15]; 62 g ai/ha)
60: Plant response rating: Corn (corn (Zea mays); 62 g ai/ha) | Plant response rating: Field Bindweed ([2]; 62 g ai/ha) | Plant response rating: Ryegrass, Italian ([5]; 125 g ai/ha) | Plant response rating: Johnsongrass ([9]; 62 g ai/ha) | Plant response rating: Ragweed ([15]; 31 g ai/ha)
95: Plant response rating: Foxtail, Giant ([1]; 31 g ai/ha) | Plant response rating: Foxtail, Giant ([1]; 62 g ai/ha) | Plant response rating: Foxtail, Giant ([1]; 125 g ai/ha) | Plant response rating: Foxtail, Giant ([1]; 250 g ai/ha) | Plant response rating: Foxtail, Green ([3]; 31 g ai/ha) | Plant response rating: Foxtail, Green ([3]; 62 g ai/ha) | Plant response rating: Waterhemp ([4]; 125 g ai/ha) | Plant response rating: Waterhemp ([4]; 250 g ai/ha) | Plant response rating: Pigweed, Palmer ([7]; 125 g ai/ha) | Plant response rating: Pigweed, Palmer ([7]; 250 g ai/ha) | Plant response rating: Johnsongrass ([9]; 250 g ai/ha) | Plant response rating: Kochia (Kochia (Kochia scoparia); 125 g ai/ha) | Plant response rating: Kochia (Kochia (Kochia scoparia); 250 g ai/ha) | Plant response rating: Goosegrass ([12]; 31 g ai/ha) | Plant response rating: Lambsquarters ([14]; 250 g ai/ha) | Plant response rating: Ragweed ([15]; 125 g ai/ha)
85: Plant response rating: Johnsongrass ([9]; 125 g ai/ha) | Plant response rating: Arrowleaf Sida ([13]; 125 g ai/ha) | Plant response rating: Ragweed ([15]; 250 g ai/ha)
75: Plant response rating: Corn (corn (Zea mays); 125 g ai/ha) | Plant response rating: Field Bindweed ([2]; 250 g ai/ha) | Plant response rating: Pigweed, Palmer ([7]; 31 g ai/ha)
